Paper PMC10672842, “Anti-Trypanosoma cruzi Activity, Mutagenicity, Hepatocytotoxicity and Nitroreductase Enzyme Evaluation of 3-Nitrotriazole, 2-Nitroimidazole and Triazole Derivatives” (Molecules, 2023)

Experiment: in vitro
Format: cell-based
Details: human
Method: The Lactate Desidrogenase (LDH) Cytotoxicity Detection Kit^PLUS and the Cell Proliferation Reagent WST-1 assays were performed according to the manufacturer’s protocols. The human hepatocellular carcinoma cell line HepG2 was cultured in T25/175 cm^2 flasks with Dulbecco’s modified Eagle’s medium (DMEM, Gibco BRL) supplemented with 10% fetal bovine serum, 3.7 g/L sodium bicarbonate and 100 µg/mL penicillin–streptomycin under standard conditions (37 ± 1 °C, 95% relative humidity and 5% CO2). Cells were split using trypsin-EDTA (0.05%) with phenol red solution (Gibco BRL) and seeded in a 96-well flat-bottomed plate at a density of 1 × 10^4 cells/well. After overnight incubation, the cells were washed with 1X PBS, and the medium was replaced with different compound dilutions (0–5000 µM) in fresh medium (100 µL) followed by 24 h of incubation. DMSO 1% was used as the negative control, and Triton X-100 4% was used as the positive control. For the LDH assay, after treatment, 50 µL of supernatant from each well was transferred to a 96-well flat-bottomed plate, and 50 µL of freshly prepared reaction mixture was added to each well. After 10 min of incubation in the dark at room temperature, 25 µL of stop solution was added to each well, and the absorbance was measured at 492 nm on a microplate reader (Polaris, Celer, MG, Brazil). For the WST-1 assay, after exposure, the supernatant was replaced by 100 µL of WST-1 2% in fresh medium and incubated for 3 h in the dark under standard conditions. The absorbance was measured at 440 nm. […] For cytotoxicity assays, significant differences between the groups were analyzed by one-way ANOVA and Tukey’s post hoc tests (p < 0.01).

Structure (SMILES)	CC50 at 24 h	CC50 at 48 h	CC50 at 72 h
O=[N+]([O-])c1ncn(CC(O)c2ccc(F)cc2F)n1 (centres unmarked) [Compound 8, 1-(2,4-Difluorophenyl)-2-(3-nitro-1H-1,2,4-triazol-1-yl)ethanol]	> 500 µM	> 500 µM	–
O=C(Cn1ccnc1[N+](=O)[O-])NCc1ccccc1 [BZN, benznidazole, reference compound]	> 500 µM	> 500 µM	> 500 µM
O=[N+]([O-])c1nccn1CC(O)c1ccc(F)cc1F (centres unmarked) [Compound 9, 1-(2,4-Difluorophenyl)-2-(2-nitro-1H-imidazol-1-yl)ethanol]	> 500 µM	> 500 µM	> 500 µM
